Data published in patent US20050032807A1, “Methods of treating inflammatory diseases with ammonium salts of ornitihine derivatives” (priority 2003, published 2005).

How the values were obtained:
[1] = target: T1, dihydrofolate reductase (DHFR) (Mus musculus, UniProt P00375); settings: Rosowsky et al., J. Med. Chem. 29, 655-660 (1986); cited from earlier work
T1 sequence (P00375 1-187): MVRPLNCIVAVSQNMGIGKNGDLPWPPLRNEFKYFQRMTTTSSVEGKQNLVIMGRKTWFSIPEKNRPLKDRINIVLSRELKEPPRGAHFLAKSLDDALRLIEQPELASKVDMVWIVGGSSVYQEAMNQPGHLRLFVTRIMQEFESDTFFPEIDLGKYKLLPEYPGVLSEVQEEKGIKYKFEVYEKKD

[2] = system: folylpolyglutamate synthetase (FPGS); settings: Rosowsky et al., J. Med. Chem. 29, 655-660 (1986); cited from earlier work
cell growth in culture = settings: Rosowsky et al., J. Med. Chem. 29, 655-660 (1986); cited from earlier work
[3] = lyophilization of the dilute ammonium hydroxide solution to the ammonium salt

| Compound | inhibition of dihydrofolate reductase (DHFR) [1] | inhibition of folylpolyglutamate synthetase (FPGS) [2] | inhibition of cell growth in culture (cell growth in culture) | product decomposition [3] |
| --- | --- | --- | --- | --- |
| NCCC[C@H](NC(=O)c1ccc(NCc2cnc3nc(N)nc(N)c3n2)cc1)C(=O)O [APA-L-Orn, N^α-(4-amino-4-deoxypteroyl)-L-ornithine] | potent inhibitor | potent inhibitor | relatively inactive |  |
| N.N.Nc1nc(N)c2nc(CNc3ccc(C(=O)N[C@@H](CCCNC(=O)c4ccccc4C(=O)O)C(=O)O)cc3)cnc2n1 [compound 8, N^α-(4-Amino-4-deoxypteroyl)N^δ-hemiphthaloyl-L-ornithine ammonium salt] |  |  |  | minimal |
